According to US9637469B2, “Pyridine derivative” (Teijin Pharma Limited, priority 2012, dated 2017):

Target: T1, human URAT1 (Homo sapiens, UniProt Q96S37)
T1 construct: Full-length cDNA of human URAT1 (hURAT1)
T1 sequence (Q96S37 1-553): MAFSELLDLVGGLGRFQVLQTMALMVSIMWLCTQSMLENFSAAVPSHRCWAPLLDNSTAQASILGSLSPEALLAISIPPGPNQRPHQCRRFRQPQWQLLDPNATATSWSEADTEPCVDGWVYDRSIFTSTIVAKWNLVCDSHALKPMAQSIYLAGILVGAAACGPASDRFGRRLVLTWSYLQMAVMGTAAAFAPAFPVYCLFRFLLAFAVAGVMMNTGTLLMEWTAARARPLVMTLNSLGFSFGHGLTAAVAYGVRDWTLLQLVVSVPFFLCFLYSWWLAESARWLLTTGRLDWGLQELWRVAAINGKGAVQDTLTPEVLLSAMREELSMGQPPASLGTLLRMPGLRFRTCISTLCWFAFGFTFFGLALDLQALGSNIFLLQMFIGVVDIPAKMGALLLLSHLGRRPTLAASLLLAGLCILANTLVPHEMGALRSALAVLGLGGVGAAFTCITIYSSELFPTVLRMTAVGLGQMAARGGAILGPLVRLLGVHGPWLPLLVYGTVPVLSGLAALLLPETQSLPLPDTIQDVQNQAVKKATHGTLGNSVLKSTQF
Assay: Test for inhibition of uric acid transport using human URAT1-expressing cells;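 also: three stars up to 0.2 µM two stars 0.2-2 µM one star 2-20 µM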
Type: cell-based
Settings: HEK 293 cells expressing human URAT1, 14C-labeled uric acid 25 μM, uptake 37° C. for 5 min; for IC50: read-out: Inhibitory Activity (IC50 of uric acid transport inhibition)
How it was run: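 HEK293 cells stably transfected with full-length hURAT1, preincubated 10 min at 37 °C in HBSS with NaCl replaced by Na gluconate. Uptake of 25 μM ¹⁴C-uric acid with compound ran 5 min at 37 °C, then scintillation counting. IC50 derived from % of DMSO-control URAT1-specific uptake.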

O=C(O)c1c(CN2CCOCC2)nc(-c2cncc(Cl)c2)n1Cc1cc(Cl)ccc1Cl [Compound A196, 2-(5-chloropyridin-3-yl)-1-(2,5-dichlorobenzyl)-4-(morpholinomethyl)-1H-imidazole-5-carboxylic acid]
Inhibitory Activity (IC50 of uric acid transport inhibition): * * *

CN1CCN(Cc2nc(-c3cncc(Cl)c3)n(Cc3cc(Cl)ccc3Cl)c2C(=O)O)CC1 [Compound A197, 2-(5-chloropyridin-3-yl)-1-(2,5-dichlorobenzyl)-4-((4-methylpiperazine-1-yl)methyl)-1H-imidazole-5-carboxylic acid]
Inhibitory Activity (IC50 of uric acid transport inhibition): * * *

O=C(O)c1c(CN2CCC(O)CC2)nc(-c2cncc(Cl)c2)n1Cc1cc(Cl)ccc1Cl [Compound A198]
IC50: 2 to 20 µM

O=C(O)c1c(Cn2ccnc2)nc(-c2cncc(Cl)c2)n1Cc1cc(Cl)ccc1Cl [Compound A199, 4-((1H-imidazol-1-yl)methyl)-2-(5-chloropyridin-3-yl)-1-(2,5-dichlorobenzyl)-1H-imidazole-5-carboxylic acid]
Inhibitory Activity (IC50 of uric acid transport inhibition): * *

O=C(O)c1c(Cn2cccn2)nc(-c2cncc(Cl)c2)n1Cc1cc(Cl)ccc1Cl [Compound A200, 4-((1H-pyrazol-1-yl)methyl)-2-(5-chloropyridin-3-yl)-1-(2,5-dichlorobenzyl)-1H-imidazole-5-carboxylic acid]
Inhibitory Activity (IC50 of uric acid transport inhibition): * * *

NCc1nc(-c2cncc(Cl)c2)n(Cc2cc(Cl)ccc2Cl)c1C(=O)O [Compound A201]
IC50: 2 to 20 µM

CCCN1CCN(Cc2nc(-c3cncc(Cl)c3)n(Cc3cc(Cl)ccc3Cl)c2C(=O)O)CC1 [Compound A202, 2-(5-chloropyridin-3-yl)-1-(2,5-dichlorobenzyl)-4-((4-propylpiperazin-1-yl)methyl)-1H-imidazole-5-carboxylic acid]
Inhibitory Activity (IC50 of uric acid transport inhibition): * * *

CS(=O)(=O)N1CCN(Cc2nc(-c3cncc(Cl)c3)n(Cc3cc(Cl)ccc3Cl)c2C(=O)O)CC1 [Compound A203, 2-(5-chloropyridin-3-yl)-1-(2,5-dichlorobenzyl)-4-((4-(methylsulfonyl)piperazin-1-yl)methyl)-1H-imidazole-5-carboxylic acid]
Inhibitory Activity (IC50 of uric acid transport inhibition): * *

CCS(=O)(=O)N1CCN(Cc2nc(-c3cncc(Cl)c3)n(Cc3cc(Cl)ccc3Cl)c2C(=O)O)CC1 [Compound A204, 2-(5-chloropyridin-3-yl)-1-(2,5-dichlorobenzyl)-4-((4-(ethylsulfonyl)piperazin-1-yl)methyl)-1H-imidazole-5-carboxylic acid]
Inhibitory Activity (IC50 of uric acid transport inhibition): * * *

O=C(O)c1cnc(-c2cncc(Br)c2)n1Cc1cc(Cl)ccc1Cl [Compound A205, 2-(5-bromopyridin-3-yl)-1-(2,5-dichlorobenzyl)-1H-imidazole-5-carboxylic acid]
Inhibitory Activity (IC50 of uric acid transport inhibition): * * *

Cc1cncc(-c2ncc(C(=O)O)n2Cc2cc(Cl)ccc2Cl)c1 [Compound A206, 1-(2,5-dichlorobenzyl)-2-(5-methylpyridin-3-yl)-1H-imidazole-5-carboxylic acid]
Inhibitory Activity (IC50 of uric acid transport inhibition): * * *

O=C(O)c1c(C(F)F)nc(-c2cncc(Cl)c2)n1Cc1cc(Cl)ccc1Cl [Compound A207, 2-(5-chloropyridin-3-yl)-1-(2,5-dichlorobenzyl)-4-(difluoromethyl)-1H-imidazole-5-carboxylic acid]
Inhibitory Activity (IC50 of uric acid transport inhibition): * * *

Cc1nc(-c2cncc(C(F)F)c2)n(Cc2cc(Cl)ccc2Cl)c1C(=O)O [Compound A208, 1-(2,5-dichlorobenzyl)-2-(5-(difluoromethyl)pyridin-3-yl)-4-methyl-1H-imidazole-5-carboxylic acid]
Inhibitory Activity (IC50 of uric acid transport inhibition): * * *

C#Cc1nc(-c2cncc(Cl)c2)n(Cc2cc(Cl)ccc2Cl)c1C(=O)O [Compound A209, 2-(5-chloropyridin-3-yl)-1-(2,5-dichlorobenzyl)-4-ethynyl-1H-imidazole-5-carboxylic acid]
Inhibitory Activity (IC50 of uric acid transport inhibition): * * *

O=C(O)c1nc(-c2cncc(Cl)c2)n(Cc2cc(Cl)ccc2Cl)c1C(=O)O [Compound A210, 2-(5-chloropyridin-3-yl)-1-(2,5-dichlorobenzyl)-1H-imidazole-4,5-dicarboxylic acid]
Inhibitory Activity (IC50 of uric acid transport inhibition): * * *

CC(O)c1nc(-c2cncc(Cl)c2)n(Cc2cc(Cl)ccc2Cl)c1C(=O)O (centres unmarked) [Compound A211, 2-(5-chloropyridin-3-yl)-1-(2,5-dichlorobenzyl)-4-(1-hydroxyethyl)-1H-imidazole-5-carboxylic acid]
Inhibitory Activity (IC50 of uric acid transport inhibition): * * *

CC(C)(O)c1nc(-c2cncc(F)c2)n(Cc2cc(Cl)ccc2Cl)c1C(=O)O [Compound A212, 1-(2,5-dichlorobenzyl)-2-(5-fluoropyridin-3-yl)-4-(2-hydroxypropan-2-yl)-1H-imidazole-5-carboxylic acid]
Inhibitory Activity (IC50 of uric acid transport inhibition): * * *

CC(C)(O)c1nc(-c2cncc(Cl)c2)n(Cc2cc(Cl)ccc2Cl)c1C(=O)O [Compound A213, 2-(5-chloropyridin-3-yl)-1-(2,5-dichlorobenzyl)-4-(2-hydroxypropan-2-yl)-1H-imidazole-5-carboxylic acid]
Inhibitory Activity (IC50 of uric acid transport inhibition): * * *

Cc1cncc(-c2nc(C(C)(C)O)c(C(=O)O)n2Cc2cc(Cl)ccc2Cl)c1 [Compound A214, 1-(2,5-dichlorobenzyl)-4-(2-hydroxypropan-2-yl)-2-(5-methylpyridine-3-yl)-1H-imidazole-5-carboxylic acid]
Inhibitory Activity (IC50 of uric acid transport inhibition): * * *

CCC(O)(CC)c1nc(-c2cncc(F)c2)n(Cc2cc(Cl)ccc2Cl)c1C(=O)O [Compound A215, 1-(2,5-dichlorobenzyl)-2-(5-fluoropyridin-3-yl)-4-(3-hydroxypentan-3-yl)-1H-imidazole-5-carboxylic acid]
Inhibitory Activity (IC50 of uric acid transport inhibition): * * *

CCC(O)(CC)c1nc(-c2cncc(Cl)c2)n(Cc2cc(Cl)ccc2Cl)c1C(=O)O [Compound A216, 2-(5-chloropyridin-3-yl)-1-(2,5-dichlorobenzyl)-4-(3-hydroxypentane-3-yl)-1H-imidazole-5-carboxylic acid]
Inhibitory Activity (IC50 of uric acid transport inhibition): * * *

CCC(O)(CC)c1nc(-c2cncc(C)c2)n(Cc2cc(Cl)ccc2Cl)c1C(=O)O [Compound A217, 1-(2,5-dichlorobenzyl)-4-(3-hydroxypentan-3-yl)-2-(5-methylpyridin-3-yl)-1H-imidazole-5-carboxylic acid]
Inhibitory Activity (IC50 of uric acid transport inhibition): * * *

CC(=O)c1nc(-c2cncc(Cl)c2)n(Cc2cc(Cl)ccc2Cl)c1C(=O)O [Compound A218, 4-acetyl-2-(5-chloropyridin-3-yl)-1-(2,5-dichlorobenzyl)-1H-imidazole-5-carboxylic acid]
Inhibitory Activity (IC50 of uric acid transport inhibition): * * *

Cc1cncc(-c2nc(Cl)c(C(=O)O)n2Cc2cc(Cl)ccc2Cl)c1 [Compound A219, 4-chloro-1-(2,5-dichlorobenzyl)-2-(5-methylpyridin-3-yl)-1H-imidazole-5-carboxylic acid]
Inhibitory Activity (IC50 of uric acid transport inhibition): * * *

O=C(O)c1c(Cl)nc(-c2cncc(Cl)c2)n1Cc1cc(Cl)ccc1Cl [Compound A220, 4-chloro-2-(5-chloropyridine-3-yl)-1-(2,5-dichlorobenzyl)-1H-imidazole-5-carboxylic acid]
Inhibitory Activity (IC50 of uric acid transport inhibition): * * *

O=C1OCc2nc(-c3cncc(Cl)c3)n(Cc3cc(Cl)ccc3Cl)c21 [Compound A221, 2-(5-chloropyridin-3-yl)-1-(2,5-dichlorobenzyl)-1H-furo[3,4-d]imidazol-6(4H)-one]
Inhibitory Activity (IC50 of uric acid transport inhibition): * * *

Cc1nc(-c2cncc(F)c2)n(C(C)c2cc(Cl)ccc2Cl)c1C(=O)O (centres unmarked) [Compound A222]
IC50: 2 to 20 µM

Cc1nc(-c2cncc(Cl)c2)n(C(C)c2cc(Cl)ccc2Cl)c1C(=O)O (centres unmarked) [Compound A223, 2-(5-chloropyridin-3-yl)-1-(1-(2,5-dichlorophenyl)ethyl)-4-methyl-1H-imidazole-5-carboxylic acid]
Inhibitory Activity (IC50 of uric acid transport inhibition): * *

Cc1cncc(-c2nc(C)c(C(=O)O)n2C(C)c2cc(Cl)ccc2Cl)c1 (centres unmarked) [Compound A224]
IC50: 2 to 20 µM

Cc1nc(-c2cncc(F)c2)n(Cc2cc(Cl)sc2Cl)c1C(=O)O [Compound A225, 1-((2,5-dichlorothiophen-3-yl)methyl)-2-(5-fluoropyridin-3-yl)-4-methyl-1H-imidazole-5-carboxylic acid]
Inhibitory Activity (IC50 of uric acid transport inhibition): * * *

Cc1nc(-c2cncc(Cl)c2)n(Cc2cc(Cl)sc2Cl)c1C(=O)O [Compound A226]
Inhibitory Activity (IC50 of uric acid transport inhibition): * * *

Cc1cncc(-c2nc(C)c(C(=O)O)n2Cc2cc(Cl)sc2Cl)c1 [Compound A227, 1-((2,5-dichlorothiophen-3-yl)methyl)-4-methyl-2-(5-methylpyridin-3-yl)-1H-imidazole-5-carboxylic acid]
Inhibitory Activity (IC50 of uric acid transport inhibition): * * *
